Earlier results as cited in patent US8455540B2, “Gossypol and apogossypol derivatives, preparation thereof and uses thereof” (Universite du Maine (Le Mans), priority 2007, dated 2013).

What was measured:
[1] = test system: proteins of the Bcl-2 family; details: compared with gossypol (apogossypol = deformylated gossypol)
[2] = test system: various types of cancers; details: compared with gossypol (apogossypol = deformylated gossypol)

## Cc1cc2c(C(C)C)c(O)c(O)cc2c(O)c1-c1c(C)cc2c(C(C)C)c(O)c(O)cc2c1O [apogossypol]
[1]
  activity on proteins of the Bcl-2 family: fully retains its activity
[2]
  activity on various types of cancers: fully retains its activity
